Data as given in ChEMBL document CHEMBL1125863, “New aromatase inhibitors. Synthesis and biological activity of pyridyl-substituted tetralone derivatives” (J Med Chem, 1991).
“And” between values parts separate entries of the source, which are not always exact repeats. Identical values can stand only once.

How the values were obtained:
Rattus norvegicus [1] = organism: Rattus norvegicus; assay type: functional; conditions: dose 10.1 mg/kg
Rattus norvegicus [2] = organism: Rattus norvegicus; assay type: functional; conditions: dose 10.1 mg/kg; remark: listed apart in the source
Rattus norvegicus [3] = organism: Rattus norvegicus; assay type: functional; conditions: dose 10.1 mg/kg; remark: listed apart in the source
Rattus norvegicus [4] = organism: Rattus norvegicus; assay type: functional; conditions: dose 10.1 mg/kg; remark: listed apart in the source
Rattus norvegicus [5] = organism: Rattus norvegicus; assay type: functional; conditions: dose 10.1 mg/kg; remark: listed apart in the source
Rattus norvegicus [6] = organism: Rattus norvegicus; assay type: functional; conditions: dose 10.1 mg/kg; remark: listed apart in the source
Rattus norvegicus [7] = organism: Rattus norvegicus; assay type: functional; conditions: dose 10 mg/kg
Rattus norvegicus [8] = organism: Rattus norvegicus; assay type: functional; conditions: dose 10.2 mg/kg
Rattus norvegicus [9] = organism: Rattus norvegicus; assay type: functional; conditions: dose 10.2 mg/kg; remark: listed apart in the source
Rattus norvegicus [10] = organism: Rattus norvegicus; assay type: functional; conditions: dose 10.2 mg/kg; remark: listed apart in the source
Rattus norvegicus [11] = organism: Rattus norvegicus; assay type: functional; conditions: dose 10.2 mg/kg; remark: listed apart in the source
Rattus norvegicus [12] = organism: Rattus norvegicus; assay type: functional; conditions: dose 10.2 mg/kg; remark: listed apart in the source
Rattus norvegicus [13] = organism: Rattus norvegicus; assay type: functional; conditions: dose 10.2 mg/kg; remark: listed apart in the source
Rattus norvegicus [14] = organism: Rattus norvegicus; assay type: functional; conditions: dose 10.2 mg/kg; remark: listed apart in the source
Rattus norvegicus [15] = organism: Rattus norvegicus; conditions: Heart right ventricle
Rattus norvegicus [16] = organism: Rattus norvegicus; conditions: Heart right ventricle; remark: listed apart in the source
Rattus norvegicus [17] = organism: Rattus norvegicus; conditions: Heart right ventricle; remark: listed apart in the source
Rattus norvegicus [18] = organism: Rattus norvegicus; assay type: functional; conditions: dose 11.4 mg/kg
Rattus norvegicus [19] = organism: Rattus norvegicus; assay type: functional; conditions: dose 11.4 mg/kg; remark: listed apart in the source
Rattus norvegicus [20] = organism: Rattus norvegicus; assay type: functional; conditions: dose 11.4 mg/kg; remark: listed apart in the source
Rattus norvegicus [21] = organism: Rattus norvegicus; assay type: functional
Rattus norvegicus [22] = organism: Rattus norvegicus; assay type: functional; conditions: dose 11.4 mg/kg; remark: listed apart in the source
Rattus norvegicus [23] = organism: Rattus norvegicus; assay type: functional; conditions: dose 11.4 mg/kg; remark: listed apart in the source
Rattus norvegicus [24] = organism: Rattus norvegicus; assay type: functional; conditions: dose 11.4 mg/kg; remark: listed apart in the source
Rattus norvegicus [25] = organism: Rattus norvegicus; assay type: functional; conditions: dose 10 mg/kg; remark: listed apart in the source
Rattus norvegicus [26] = organism: Rattus norvegicus; assay type: functional; conditions: dose 10 mg/kg; remark: listed apart in the source
Rattus norvegicus [27] = organism: Rattus norvegicus; assay type: functional; conditions: dose 10 mg/kg; remark: listed apart in the source
Rattus norvegicus [28] = organism: Rattus norvegicus; assay type: functional; conditions: dose 10 mg/kg; remark: listed apart in the source
Rattus norvegicus [29] = organism: Rattus norvegicus; assay type: functional; conditions: dose 10 mg/kg; remark: listed apart in the source
Rattus norvegicus [30] = organism: Rattus norvegicus; assay type: functional; conditions: dose 10 mg/kg; remark: listed apart in the source
Aromatase = target: T1, Aromatase (Rattus norvegicus, UniProt P22443)
T1 sequence (P22443 whole entry): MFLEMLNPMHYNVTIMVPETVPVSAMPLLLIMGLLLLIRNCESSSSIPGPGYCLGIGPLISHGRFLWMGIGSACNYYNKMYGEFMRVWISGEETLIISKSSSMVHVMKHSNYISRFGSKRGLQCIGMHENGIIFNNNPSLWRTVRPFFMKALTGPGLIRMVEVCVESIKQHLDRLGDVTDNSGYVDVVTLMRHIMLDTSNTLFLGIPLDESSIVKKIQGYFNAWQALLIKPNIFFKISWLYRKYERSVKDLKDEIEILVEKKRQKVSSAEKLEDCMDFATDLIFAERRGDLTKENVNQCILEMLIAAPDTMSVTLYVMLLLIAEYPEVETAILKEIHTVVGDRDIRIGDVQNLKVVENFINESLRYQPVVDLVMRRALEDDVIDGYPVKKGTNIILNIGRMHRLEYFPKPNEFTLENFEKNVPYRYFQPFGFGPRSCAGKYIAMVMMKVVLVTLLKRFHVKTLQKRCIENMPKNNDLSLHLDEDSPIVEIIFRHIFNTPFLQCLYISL

Rattus norvegicus [31] = organism: Rattus norvegicus; conditions: Heart right ventricle; remark: listed apart in the source
Rattus norvegicus [32] = organism: Rattus norvegicus; conditions: Heart right ventricle; remark: listed apart in the source
Rattus norvegicus [33] = organism: Rattus norvegicus; conditions: Ovarian vein
Rattus norvegicus [34] = organism: Rattus norvegicus; conditions: Heart right ventricle; remark: listed apart in the source
Rattus norvegicus [35] = organism: Rattus norvegicus; conditions: Heart right ventricle; remark: listed apart in the source
Rattus norvegicus [36] = organism: Rattus norvegicus; conditions: Heart right ventricle; remark: listed apart in the source
Rattus norvegicus [37] = organism: Rattus norvegicus; conditions: Heart right ventricle; remark: listed apart in the source
Rattus norvegicus [38] = organism: Rattus norvegicus; conditions: Heart right ventricle; remark: listed apart in the source
Rattus norvegicus [39] = organism: Rattus norvegicus; conditions: Heart right ventricle; remark: listed apart in the source
Rattus norvegicus [40] = organism: Rattus norvegicus; conditions: Heart right ventricle; remark: listed apart in the source

In the case of CCC(=O)O[C@H]1CC[C@H]2[C@@H]3CCC4=CC(=O)CC[C@]4(C)[C@H]3CC[C@]12C.O=C1/C(=C/c2ccncc2)CCc2ccccc21, the “Tumors with CR” value (Rattus norvegicus [1]) is reported as 20%, the “Tumors with CR” value (Rattus norvegicus [2]) is reported as 20% and the “Tumors with CR” value (Rattus norvegicus [3]) is reported as 40%. The “Tumors with CR” value (Rattus norvegicus [4]) was 20%, the No. of tumors (Rattus norvegicus [5]) was 30 and the No. of tumors (Rattus norvegicus [6]) was 6. For the same molecule, the “Change of tumor area” value (Rattus norvegicus [7]) was 2%.

For CCC(=O)O[C@H]1CC[C@H]2[C@@H]3CCC4=CC(=O)CC[C@]4(C)[C@H]3CC[C@]12C.O=C1c2ccccc2CCC1Cc1ccncc1, the “Tumors with CR” value (Rattus norvegicus [8]) was 13%, the “Tumors with CR” value (Rattus norvegicus [9]) was 32% and the No. of tumors (Rattus norvegicus [10]) was 8. The “Tumors with CR” value (Rattus norvegicus [11]) was 45%, the “Tumors with CR” value (Rattus norvegicus [12]) was 10% and the No. of tumors (Rattus norvegicus [13]) was 31. The “Change of tumor area” value (Rattus norvegicus [14]) was 41%.

CCC1(c2ccc(N)cc2)CCC(=O)NC1=O (centres undefined) was tested, and the Plasma-E2 concentration (Rattus norvegicus [15]) was 843 pg/mL and 500 pg/mL, the Plasma-E2 concentration (Rattus norvegicus [16]) was 272 pg/mL and the Plasma-E2 concentration (Rattus norvegicus [17]) was 164 pg/mL.

For CCC(=O)O[C@H]1CC[C@H]2[C@@H]3CCC4=CC(=O)CC[C@]4(C)[C@H]3CC[C@]12C.COc1cccc2c1CC/C(=C\c1ccncc1)C2=O, the “Tumors with CR” value (Rattus norvegicus [18]) was 29%, the “Tumors with CR” value (Rattus norvegicus [19]) was 11% and the “Tumors with CR” value (Rattus norvegicus [20]) was 50%. The “Tumors with CR” value (Rattus norvegicus [21]) was 11%, the No. of tumors (Rattus norvegicus [22]) was 28 and the No. of tumors (Rattus norvegicus [23]) was 9. For the same molecule, the “Change of tumor area” value (Rattus norvegicus [24]) was 115%.

In the case of CCC(=O)O[C@H]1CC[C@H]2[C@@H]3CCC4=CC(=O)CC[C@]4(C)[C@H]3CC[C@]12C.CCC1(c2ccc(N)cc2)CCC(=O)NC1=O, the “Tumors with CR” value (Rattus norvegicus [25]) is reported as 6%, the “Tumors with CR” value (Rattus norvegicus [26]) is reported as 17% and the “Tumors with CR” value (Rattus norvegicus [27]) is reported as 23%. The “Tumors with CR” value (Rattus norvegicus [28]) was 54%, the No. of tumors (Rattus norvegicus [29]) was 35 and the No. of tumors (Rattus norvegicus [30]) was 7. The “Change of tumor area” value (Rattus norvegicus [7]) was 4%.

Work on COc1cccc2c1CCC(Cc1ccncc1)C2=O (centres undefined) yielded an IC50 (Aromatase) of 8 µM, a Plasma-E2 concentration (Rattus norvegicus [31]) of 882 pg/mL and a Plasma-E2 concentration (Rattus norvegicus [32]) of 851 pg/mL. The Plasma-E2 concentration (Rattus norvegicus [33]) was 3950 pg/mL, the Plasma-E2 concentration (Rattus norvegicus [34]) was 990 pg/mL and the Plasma-E2 concentration (Rattus norvegicus [35]) was 639 pg/mL. For the same molecule, the Plasma-E2 concentration (Rattus norvegicus [36]) was 894 pg/mL, the Plasma-E2 concentration (Rattus norvegicus [15]) was 1460 pg/mL and 902 pg/mL and the Plasma-E2 concentration (Rattus norvegicus [16]) was 576 pg/mL. For the same molecule, the Plasma-E2 concentration (Rattus norvegicus [37]) was 458 pg/mL, the Plasma-E2 concentration (Rattus norvegicus [38]) was 1040 pg/mL and the Plasma-E2 concentration (Rattus norvegicus [39]) was 542 pg/mL. It also gave a Plasma-E2 concentration (Rattus norvegicus [40]) of 1250 pg/mL.
